According to a melting point compilation (Tetko et al.; mined from patent text by program, amines drawn as free bases though some values may be those of a salt):

| melting point [°C] | Compound |
| --- | --- |
| 167 to 168 | CCOC(=O)Nc1ccc(C(C)C(O)(Cn2cncn2)c2ccc(F)cc2F)cn1 (configuration not stated) |
| 79 to 81 | CCOC(=O)c1ccccc1NC(=O)CNc1ccccc1F |
| 52 to 54 | CCOC(=O)CN1C(=O)[C@H](NC(=O)[C@H](COCc2ccccc2)NC(=O)OC(C)(C)C)CSc2ccccc21 |
| 158 to 160 | CCOC(=O)Cn1c(C(=O)NCc2nncn2-c2sc(CC)cc2C(=O)c2ccccc2Cl)cc2ccccc21 |
| 97 to 98 | COc1ccc(-c2nc(-c3ccccc3)no2)cc1 |
| 193 to 195 | Cc1nc2cc(C(F)(F)F)ccc2n1NC(=O)c1ccc(Cl)c(S(N)(=O)=O)c1 |
| 205 to 206 | CCNc1cc(Oc2ccc(NC(=O)NC3CC3c3ccccc3)cc2)ncn1 (configuration not stated) |
| 224 to 226 | COC(=O)c1cccc2c(=O)c3cc(I)ccc3[nH]c12 |
| 121 to 123 | CCCc1c(O)c(C(C)=O)cc2c(=O)cc(C(=O)OC)n(CC)c12 |
| 164 to 166 | Cn1ncnc1COc1nn2c(-c3ccc(F)cc3F)nncc2c1-c1ccccc1F |
| 149 to 150 | CCOCCNC(=O)c1ccn2nc(-c3ccccc3)c(-c3ccc(=O)n(C(C)C)n3)c2c1 |
| 145 to 146 | CCCc1c(OC)c(OC)cc2c1C(=O)N(CSc1nnnn1-c1ccccc1)S2(=O)=O |
| > 275 | N[C@@]1(C(=O)O)C[C@H](NC(=O)Nc2cccc3ccccc23)[C@H]2[C@H](C(=O)O)[C@H]21 (relative stereo) |
| 66 to 67 | O=C(NCCOc1ccc(CC(Sc2nc3ccccc3o2)C(=O)O)cc1)c1ccc(-c2ccccn2)cc1 (configuration not stated) |
| 244 to 246 | Oc1ccc2c(c1O)C(Cc1ccnc3ccccc13)c1ccccc1-2 (configuration not stated) |
| 298 | CNC(=O)c1cc(NCc2c(C)cccc2C)c2nc(C)[nH]c2c1 |
| 226 to 229 | NS(=O)(=O)c1ccc(CCN2C(=O)c3ccccc3C2=O)s1 |
| 196 | O=C(Nc1ccc(N2CCC(C(C(=O)O)c3ccccc3)CC2)cc1)c1ccccc1-c1ccc(C(F)(F)F)cc1 (configuration not stated) |
| 150 to 151 | CCCc1nc2c(N)nc3ccccc3c2n1CCCCC(=O)N(C)OC |
| 87 to 88 | C=CCC(O)(CCCc1ccc(Cl)cc1)c1ccc(OCc2ccc3ccccc3n2)cc1 (configuration not stated) |
| 202 to 203 | CC(C)CC(=O)Nc1c(C(=O)c2ccoc2)[nH]c2cc(Cl)ccc12 |
| 140 to 142 | COc1ccc(NC(=O)NC(=O)Oc2ccccc2)cc1OC |
| 57 to 60 | COc1ccc(Cl)cc1[C@]1(F)C(=O)N(C(=O)NC(C)(C)C(=O)O)c2cc(C(F)(F)F)ccc21 |
| 131 to 133 | CCOC(=O)c1cn(-c2nc3ccccc3s2)cn1 |
| 219 to 221 | CC(=O)OC1NC(=O)C2=C1c1ccc(Cl)cc1C(c1ccccc1Cl)=NC2 (configuration not stated) |

Continued, compound first:

| Compound | melting point [°C] |
| --- | --- |
| CSc1nc(=O)n(C(C)C)c(=O)[nH]1 | 188 to 190 |
| COc1cccc(-n2c(CCl)nc3ccccc3c2=O)c1 | 180 to 182 |
| CC(C)(C(=O)O)c1cccc(O[Si](C)(C)C(C)(C)C)c1 | 72 to 74 |
| CC(C)(C)OC(=O)C=Cc1ccc(O)cc1C=NO | 146 to 149 |
| COC(=O)C(c1ccccc1CCl)C(OC)OC (configuration not stated) | 63.5 to 64.5 |
| O=C(O)CCc1ccc(O)c(C=Nc2cc(S(=O)(=O)O)ccc2O)c1 | > 275 |
| C#CCCCC(=O)c1nc(C(C)(C)C)c(O)c(C(C)(C)C)n1 | 64 to 66 |
| CN(C)S(=O)(=O)c1cnc(NC(=O)[C@H](CC2CCCC2)c2ccc(S(C)(=O)=O)c(Cl)c2)cn1 | 100 |
| O=C(O)CN1CCOc2ccc([N+](=O)[O-])cc2C1=O | 110 to 120 |
| COc1cc(Nc2c(C#N)cnc3cc(C#Cc4cccnc4)sc23)c(Cl)cc1Cl | 249 to 250 |
| COC(=O)CC(=O)CC(O)/C=C/C1=C(c2ccc(F)cc2)C=C(c2ccc(F)cc2)CC12CCCC2 (configuration not stated) | 96 to 99 |
| COc1ccc(CSc2nc(NC(CO)CO)c3ncc(=O)[nH]c3n2)cc1Cl | 209 to 211 |
| C#CCNC1CCc2ccccc21 (configuration not stated) | 39 to 41 |
| N#Cc1nn(-c2c(Cl)cc(C(F)(F)F)cc2Cl)cc1C1(Cl)CC1C(F)F (configuration not stated) | 124 to 125 |
| CCOC(=O)Nc1ccc2nc(S(N)(=O)=O)sc2c1 | 223 to 224 |
| CC1(COc2ccc(CC3SC(=O)NC3=O)cc2)CCC(=O)CC1 (configuration not stated) | 134 to 135 |
| NS(=O)(=O)c1cc2c(s1)S(=O)(=O)N(CCO)C(CN1CCOCC1)=C2 | 104 to 108 |
| COC(=O)/C=C\c1cnn(C)c1-c1ccc(F)cc1 | 108 to 109 |
| O=c1ccn(CCO)c(C(O)c2cccnc2)c1O (configuration not stated) | 189 to 190 |
| CC(=O)N1CCC(=O)NCc2cc([N+](=O)[O-])ccc21 | 253 to 256 |
| CSc1ncc2c(=O)[nH]c(-c3ccccc3OCC3CC3)nc2n1 | 186 to 187 |
| Nc1n[nH]cc1C(=O)NC/C=C\COc1cc(CN2CCCCC2)ccn1 | 172 to 174 |
| CS(=O)(=O)c1ccc(-c2cc(C(=O)CCCO[N+](=O)[O-])nn2C2CCCCC2)cc1 | 122 to 124 |
| Cn1cc(C(=O)C(Cl)Cl)c(=O)c(-c2cccc(C(F)(F)F)c2)c1 | 184 to 186 |

| Compound | melting point [°C] |
| --- | --- |
| COc1ccc(CN/C=C2\C(=O)NC(=O)c3cccc(Br)c32)cc1O | 204 to 206 |
| COc1ccc2c(c1)Sc1c(cc(OC)c(OC(C)=O)c1Br)N2C(=O)OC(C)OC(C)=O (configuration not stated) | 134 to 135 |
| O=C(c1cccc2[nH]ccc12)N1CCOCC1 | 127 to 129 |
| CCn1c(=O)sc2cc(N3C[C@H](C(=O)NC)OC3=O)ccc21 | 227 to 229 |
| Cc1c(F)cc2c(=O)c(C(=O)O)cn(CCF)c2c1F | 215 to 217 |
| COC(=O)CCc1ccc(CBr)cc1 | 38 to 42 |
| CCCCCCCCCCCCC1=C(O)C(=O)c2c(C)cccc2C1=O | 92 to 93 |
| CCOC(=O)CC1NCCN(CCc2c[nH]c3ccc(Cl)cc23)C1=O (configuration not stated) | 136 |
| CCCOC(=O)C(OC)C(=O)Nc1cc(Cl)cc(Cl)c1 (configuration not stated) | 89 to 92 |
| CSSc1ccc([N+](=O)[O-])cc1 | 42.9 to 44.3 |
| C#Cc1ccc(I)c(Oc2cnc(N)nc2N)c1 | 156 to 159 |
| CC(=O)Nc1cc([N+](=O)[O-])ccc1CBr | 188 to 189 |
| COc1cc(CNC(=S)NC(COC(=O)C(C)(C)C)Cc2ccc(C(C)(C)C)cc2)ccc1O (configuration not stated) | 117 to 119 |
| CS(=O)(=O)c1ccc(Oc2ccc(O)cc2)cc1 | 129 to 130 |
| CSc1nccn1N=Cc1cc(C(C)(C)C)c(O)c(C(C)(C)C)c1 | 181 to 183 |
| O=[N+]([O-])c1cccc(CO)c1Cl | 69 to 70 |
| CCOCc1nc2c(N)nc(C)c(C)c2n1CC1(O)CCCCC1 | 194 to 195 |
| O=C(c1ccccc1)N1CC2CC=Cc3cccc1c32 (configuration not stated) | 89 to 91 |
| NS(=O)(=O)c1sc(Cl)cc1C(=O)CBr | 147 to 148 |
| COc1ccc2cc(O)c(C(C)(C)O)cc2c1 | 148 to 150 |
| O=C(Nc1ccc(C(F)(F)F)cc1)Nc1nc(Cl)cc(Cl)n1 | 99 to 101 |
| Cc1cc2c(cc1-c1cc(C=C3SC(=O)NC3=O)ccc1N(C)C)N(C(C)C)C(=O)CC2(C)C | 274 to 276 |
| CCN1CNC(=O)NC1=O | 220 to 224 |
